Experimental findings from PubChem BioAssay (NCI) are described below.

Common to all, as to assay: NCI anticancer screen, dose series, 48 h
Experiment [1] has as its system NCI-H226 lung.
The test system of experiment [2] is EKVX NSCLC.
Experiment [3] deals with SK-MEL-2 melanoma.
Experiment [4] has as its system SK-MEL-5 melanoma.
The subject of experiment [5] is BT-549 breast.
Experiment [6] deals with T-47D breast.
Experiment [7] has as its system OVCAR-8 ovarian.
Experiment [8] has as its system HCT-15 colon.
For experiment [9], the system named is SN12C renal.
The test system of experiment [10] is HOP-92 NSCLC.

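Step 1: Grow cells in 96-well plates. Step 2: Expose to compound for 48 hours at 5 concentrations. Step 3: Interpolate endpoints linearly; if unreached, use highest concentration. GI50 marks 50% less growth. Definition used: TGI = concentration required for complete inhibition of growth.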 Where a SMILES comes first, the peptide text is derived from it. The star is where a group is joined. Trt = c1ccc(C(c2ccccc2)(c2ccccc2)*)cc1; Cbz = O=C(OCc1ccccc1)*

For `COc1ccc2c(c1)/C(=N/OC(C)=O)c1c-2cnc2ccccc12`, the GI50 is 33.5 µM in experiment [1]; 23.1 µM in experiment [2]; 26.9 µM in [3]; 17.6 µM in experiment [4]; 49.5 µM in experiment [5]; 19.9 µM in [6]. Also, the GI50 in experiment [7] is 38.4 µM; in experiment [8] it was 34.9 µM; in experiment [9] it was 18.9 µM; in experiment [10], 18.3 µM. Moreover, the TGI in experiment [1] is over 100 µM; in experiment [2], over 100 µM; in experiment [3] it was 64.6 µM; in [4], 48.5 µM; in experiment [5], over 100 µM; in experiment [6], 66.3 µM. For the same molecule, the TGI was over 100 µM in experiment [7], over 100 µM in experiment [8], 36.3 µM in [9] and 37.2 µM in experiment [10].

For the molecule `COC(=O)C(CSC(c1ccccc1)(c1ccccc1)c1ccccc1)NC(=O)C(CC(N)=O)NC(=O)OCc1ccccc1` (stereo not drawn) (Cbz-Asn-Cys(Trt)-OMe; configuration not given here), the GI50 was 5.43 µM in [1]; 4.15 µM in experiment [2]; 2.12 µM in experiment [3]; 3.23 µM in experiment [4]; 14.8 µM in experiment [5]; 2.13 µM in experiment [6]. Besides, the GI50 in [7] is 3.16 µM; in experiment [8] it was 3.81 µM; in experiment [9], 3.54 µM; in experiment [10], 2.64 µM. Besides, the TGI came to 22 µM in experiment [1]; 25.5 µM in experiment [2]; 5.49 µM in experiment [3]; 14.4 µM in experiment [4]; 35.7 µM in experiment [5]; 8.33 µM in experiment [6]. The TGI in experiment [7] amounted to 17 µM; in experiment [8], 14.1 µM; in experiment [9] it was 15 µM; in [10] it was 14.9 µM.

Consider `Cc1cc2nc3c4ccc(Br)cc4n(CCN(C)C)c3nc2cc1C`, for which the GI50 was 2.46 µM in experiment [1]; 2.02 µM in experiment [2]; 2 µM in experiment [3]; 1.72 µM in experiment [4]; 1.71 µM in experiment [5]; 2.05 µM in experiment [6]. Further, the GI50 in experiment [7] was 1.24 µM; in experiment [8] it was 0.751 µM; in [9], 1.1 µM; in experiment [10], 1.3 µM. For the same molecule, the TGI stood at 11.1 µM in experiment [1]; 6.58 µM in experiment [2]; 4.24 µM in [3]; 3.12 µM in [4]; 3.75 µM in experiment [5]; 6.6 µM in experiment [6]. Besides, the TGI turned out to be 11.8 µM in experiment [7], 6.24 µM in [8], 6.18 µM in [9] and 5.28 µM in experiment [10].

Regarding `O=C(/C=C/c1ccco1)c1ccc(Nc2nc(Nc3ccc(F)cc3)nc(Nc3ccc(F)cc3)n2)cc1`, the GI50 in experiment [1] is 53.3 µM; in experiment [2] it was 54.3 µM; in experiment [3], 39 µM; in experiment [4] it was 27 µM; in [5], 4.9 µM; in experiment [6], 11.4 µM. Moreover, the GI50 in experiment [7] was 17.4 µM; in [8], 22.5 µM; in experiment [9], 54.8 µM; in experiment [10], 4.17 µM. Besides, the TGI in [1] is over 100 µM; in experiment [2] it was over 100 µM; in experiment [3] it was over 100 µM; in experiment [4] it was over 100 µM; in [5], 26.8 µM; in experiment [6], 59.8 µM. In addition, the TGI in experiment [7] is 46.1 µM; in [8] it was over 100 µM; in [9], over 100 µM; in [10], 41.6 µM.

`CCN(CC)Cc1cc(Nc2c3ccccc3nc3cc(Cl)ccc23)ccc1O`: the GI50 in experiment [1] is 1.66 µM; in [2] it was 2.26 µM; in experiment [3], 1.75 µM; in experiment [4], 1.75 µM; in experiment [5], 1.95 µM; in [6], 1.97 µM. Also, the GI50 in [7] is 1.18 µM; in [8], 3.49 µM; in experiment [9], 1.05 µM; in [10] it was 1.41 µM. Also, the TGI in experiment [1] was 3.23 µM; in experiment [2], 5.99 µM; in experiment [3], 3.36 µM; in experiment [4] it was 3.16 µM; in experiment [5], 3.48 µM; in experiment [6] it was 4 µM. The TGI in experiment [7] was found to be 3.83 µM; in [8] it was 17 µM; in [9], 2.67 µM; in experiment [10] it was 3.13 µM.

In the case of `COc1ccc(C(=O)c2cc3c(N)c(C(=O)Nc4cccc(OC)c4)sc3nc2C)cc1`, the GI50 was 2.99 µM in experiment [1]; 0.997 µM in experiment [2]; over 100 µM in experiment [3]; 0.643 µM in experiment [4]; 1.67 µM in experiment [5]; 4.7 µM in experiment [6]. For the same molecule, the GI50 is 1.75 µM in experiment [7], 0.479 µM in [8], 0.867 µM in experiment [9] and 2.39 µM in experiment [10]. The TGI in experiment [1] is over 100 µM; in experiment [2], over 100 µM; in experiment [3], over 100 µM; in experiment [4], over 46.1 µM; in experiment [5], over 100 µM; in [6] it was over 100 µM. Besides, the TGI in experiment [7], in experiment [8], in [9] and in experiment [10] was over 100 µM throughout.

Take `Cc1ccc(S(=O)(=O)NC(CO)C(=O)O)cc1` (stereo not given): the TGI in experiment [1], in experiment [2], in experiment [3], in [4], in experiment [5] and in experiment [6] was over 100 µM each time. Besides, the TGI in [7], in experiment [8], in experiment [9] and in experiment [10] was over 100 µM in each case.

With `CC(N1CCOCC1)C(O)(c1ccccc1)c1ccccn1` (stereo not given), the TGI in [1], in [2], in experiment [3], in [4], in [5] and in experiment [6] was over 100 µM in each case. Further, the TGI in [7], in [8], in experiment [9] and in [10] was over 100 µM each time.
